Measured values as given in PMC10600239, “Selective MCL-1 inhibitor ABBV-467 is efficacious in tumor models but is associated with cardiac troponin increases in patients” (Communications Medicine, 2023).

Experiments:
SKBR3 cells = assay: Cell viability of parental and BAK-, BAX-, BCL2L11-, PMAIP1-deficient SKBR3 cells (CellTiter-Glo); type: cell-based; details: SKBR3, 24 h
Procedure: Fig. 2 Apoptosis induced by ABBV-467 is mechanism based and induces cell death in MCL-1-dependent cell lines after short target engagement periods. H929 cells were treated with ABBV-467 in the presence or absence of the pan-caspase inhibitor z-VAD-fmk (50 µM) and the impact on caspase-3/7 activation (a), mitochondrial membrane potential (ΔΨm; b), and apoptosis (c) determined. Alternatively, BAK-deficient SKBR3 cells were treated with ABBV-467 for 24 h and the impact on cell viability compared with the parental cell line, determined by CellTiter-Glo. Inset depicts a western blot of BAK and BAX expression in SKBR3 cell variants using GAPDH as a loading control. Each of the 3 proteins were probed on separate blots (d). Data in (a–d) are presented as the mean ± standard error of the mean. H929 and AMO-1 cells were treated with ABBV-467 at the indicated concentrations and the impact on caspase-3/7 activation and viability (DRAQ7-positive) cells determined over time by Incucyte®. Data are presented as the mean ± standard deviation (e). H929 or AMO-1 cells were cultured in media containing 10% human serum and treated with ABBV-467 for the indicated contact times. Cells were subsequently washed 3 times with drug-free media and incubated in drug-free media for the remainder of the 24-h treatment period at 37 °C before cell viability was determined by CellTiter-Glo. Mean EC50 and EC90 values were determined from the resulting dose-response curves from at least 3 independent experiments, each assessed in quadruplicate, and depict the mean ± standard error of the mean. Presented ABBV-467 dose-response curves in H929 and AMO-1 cells were compiled from at least 3 independent experiments (f).
Supplementary Fig. S5: SKBR3 cells deficient in BAX, BAK , PM AIP 1 (gene encoding the protein NOXA),
BCL 2L 11 (gene encoding the protein BIM) were treated with ABBV-467 for 24 hours and the impact on
cell death compared to the parental cell line determined by CellTiter- Glo™.

OCI-AML2 xenografts = assay: OCI-AML2 xenograft efficacy (tumor volume, body weight); details: for tumor response: for 20 days post-treatment
Procedure: All animal studies were conducted in accordance with the guidelines approved by the Institutional Animal Care and Use Committees of AbbVie. The research protocol was approved by In Vivo Pharmacology at AbbVie prior to study initiation but was not publicly registered or disclosed. Female C.B-17 SCID-beige mice (AMO-1, OPM-2, NCI-H929, and OCI-AML2 xenografts) and female NSG mice (MV4-11-Red.Fluc systemic) were purchased from Charles River Laboratories (Wilmington, MA). Animals were housed in a light cycle-controlled room with HEPA filtration at 22 °C. Animals had nesting and climbing cage topper as the primary environmental enrichment. Animals were inoculated subcutaneously in the right flank with 5 × 10^6 (AMO-1, OPM-2, NCI-H929, and OCI-AML2) or intravenous (IV) with 5 × 10^6 (MV4-11-Red.Fluc). The inoculation volume (0.2 mL) comprised a 50:50 mixture of cells in growth media and Matrigel (BD Biosciences) for subcutaneous injections and 100% phosphate-buffered saline for IV administration. […] Electronic calipers were used to measure the length and width of each tumor 2 to 3 times per week. Tumor volume was estimated by applying the following equation: volume = length × width^2/2. All groups remained blinded during measurements and dosing; only veterinary staff were aware of group identity. When tumors reached approximately 200 mm^3, mice were randomized by match and distributed into treatment and control groups. All xenograft trials were conducted using 5 to 10 mice per group, and all mice were ear tagged and monitored individually throughout the studies.
For combination studies, all compounds were administered within 30 min of each other.
The tumor growth delay (TGD) percentage was determined as the percentage increase of the median time period for the treatment group to reach an arbitrary tumor volume of 1000 mm^3 relative to the vehicle control group. […] A power analysis was conducted using historical data to determine the number of animals required to yield significance of 0.05 at a 30% difference. There were no animals excluded. Data from experiments in vivo were analyzed using the student’s t-test for TGI values and the Mann–Whitney U test for TGD using Excel and GraphPad Prism. Fisher’s exact test was used to probe significance of differences in response frequency.

NCI-H929 xenografts = assay: NCI-H929 xenograft efficacy (tumor volume, survival); type: in vivo; details: single dose […]
Procedure: All animal studies were conducted in accordance with the guidelines approved by the Institutional Animal Care and Use Committees of AbbVie. The research protocol was approved by In Vivo Pharmacology at AbbVie prior to study initiation but was not publicly registered or disclosed. Female C.B-17 SCID-beige mice (AMO-1, OPM-2, NCI-H929, and OCI-AML2 xenografts) and female NSG mice (MV4-11-Red.Fluc systemic) were purchased from Charles River Laboratories (Wilmington, MA). Animals were housed in a light cycle-controlled room with HEPA filtration at 22 °C. Animals had nesting and climbing cage topper as the primary environmental enrichment. […] All xenograft trials were conducted using 5 to 10 mice per group, and all mice were ear tagged and monitored individually throughout the studies. […] Tumor burden in the systemic MV4-11-Red.Fluc experiment was measured using an IVIS® spectrum from PerkinElmer by taking the total photon flux of the entire dorsal side of an individual mouse. […]
For in vivo studies, maximal tumor growth inhibition (TGI) was calculated as the greatest treatment response using the following equation: Maximal TGI = (1 − mean tumor volume of the treated group/mean tumor volume of the vehicle control group) × 100. […] Data from experiments in vivo were analyzed using the student’s t-test for TGI values and the Mann–Whitney U test for TGD using Excel and GraphPad Prism. […]

[1] = combined with venetoclax and 5-azacitidine

Cc1c(Cl)c2c(Cl)c(C)c1-c1c(-c3ccc(F)cc3)sc3ncnc(c13)O[C@@H](C(=O)O)Cc1cc(ccc1OCc1ccnc(-c3ccc(OC[C@H]4COCCO4)cc3)n1)OC[C@@H](CN1CCN(C)CC1)O2 [ABBV-467]
effect of BAK deletion on activity (SKBR3 cells): completely inhibited | effect of deletion of BAX, BIM or NOXA genes on activity (SKBR3 cells): did not impact activity | TGD (OCI-AML2 xenografts; combined with venetoclax): > 878% | TGI (OCI-AML2 xenografts; combined with venetoclax): 99% | TGD (OCI-AML2 xenografts; [1]): > 878% | TGI (OCI-AML2 xenografts; [1]): 99% | tumor response (OCI-AML2 xenografts; [1]): complete tumor regression in all tumors | tumor response (OCI-AML2 xenografts; combined with venetoclax): complete tumor regression in all tumors | animals remaining tumor free at 120 days post-inoculation (OCI-AML2 xenografts; doublet (with venetoclax)): 62.5% | sensitivity of OCI-AML2 tumors (OCI-AML2 xenografts; in combination with 5-azacitidine): resistant | sensitivity of OCI-AML2 tumors (OCI-AML2 xenografts; monotherapy): resistant | animals remaining tumor free at 120 days post-inoculation (OCI-AML2 xenografts; triplet (with venetoclax and 5-azacitidine)): 62.5% | mice with tumors remaining below 1000 mm^3 until 250 days post-treatment (NCI-H929 xenografts): 40%
